Laboratory results reported in US4500544A, “Ascochlorin derivatives, and pharmaceutical composition containing the same” (Chugai Seiyaku Kabushiki Kaisha, priority 1981, dated 1985).

Key:
[1] = background; cited from earlier work
[2] = systemic or oral administration; cited from earlier work
[3] = background; cited from earlier work; remark: listed apart in the source
[4] = test system: circulatory system of mammals; conditions: background; cited from earlier work
[5] = plasma glucose and cholesterol in normal mice fed the compounds (Example 19); format: in vivo, ddY male mice; conditions: 0.1% in diet, one week, n=10; for total cholesterol in plasma: control 135.9 ± 4.8; for plasma glucose: control 271.6 ± 0.4
Experimental: Five-week-old ddY male mice (n=10) were given for one week a diet (CE-2 from Nippon Crea Co., Ltd.) containing 0.1% of the sample compounds of the present invention indicated in Table 1. Blood was then withdrawn from the heart and the glucose and cholesterol levels in plasma were measured.

[6] = test system: streptozotocin diabetic ddY mice; experiment: streptozotocin-diabetic mice, diet with 0.1% compound (Example 21); format: in vivo, ddY male mice
Experimental: Five-week-old ddY male mice were injected intraperitoneally with 130 mg/kg of streptozotocin. […] Each group was allowed to take the diet and drink water freely. One week later, the levels of glucose, insulin, free fatty acid in serum and glycogen in liver were measured.

Ehrlich ascites tumor = experiment: life span of mice with Ehrlich ascites tumor (Example 22); format: in vivo, ddY male mice; conditions: 2 mg i.p. once a day for 7 days; for Days survived: n=8, control 15.5 ± 2.12; for T/0 (%): control 100
Experimental: 10^6 Cells of Ehrlich ascites tumor were transplanted in five-week-old ddY male mice and from the 24th hour onward, they were injected intraperitoneally the compounds indicated in Table 4 of the present invention once a day for 7 consecutive days. Each injection contained 2 mg of the test compounds. The efficacy of the compounds is indicated in Table 4 in terms of their life span.

[7] = test system: Hereditary obese diabetic mice C 57BL/Ksj (db^+ /db^+); experiment: hereditary obese diabetic mice, diet with 0.1% compound (Example 20); format: in vivo, mouse
Experimental: The amounts of the diet taken drinking water, urine volume and urine glucose excreted were measured daily. The results are indicated in Table 2 in terms of mean value±standard error.

L-1210 leukemia = experiment: prevention of L-1210 leukemia by pretreatment one week before transplantation (Example 23); format: in vivo, BDF1 female mice; conditions: 2 mg i.p. one week before 10^2 cells
Experimental: Four-week-old BDF1 female mice were injected intraperitoneally with suspensions of 2 mg of 4-O-hydroxycarbonylmethyl ester of ascochlorin in 1% tragacanth gum. A control group was injected only with 1% tragacanth gum. One week later, 10^2 cells of L-1210 leukemia were transplanted in the mice.

[8] = test system: adipocytes of streptozotocin-diabetic rats; experiment: adipocytes from orally treated streptozotocin-diabetic rats; format: in vivo; conditions: oral once daily for 2 weeks
Experimental: The mechanism of action of the compounds of the present invention was evaluated using adipocytes derived from diabetic animals which orally received the compounds for a given period.

[9] = test system: adipocytes of hereditary obese diabetic mouse, strain C 57BL/KsJ (db^+ /db^+); experiment: adipocytes from orally treated hereditary obese diabetic mice; format: in vivo; conditions: oral, 1 week
Excerpt: The hereditary obese diabetic mouse, strain C 57BL/KsJ (db^+ /db^+), is an excellent model of human type II diabetes mellitus.

[10] = test system: hepatic lipogenesis in streptozotocin-diabetic mice; experiment: hepatic lipogenesis in streptozotocin-diabetic mice; format: in vivo; conditions: oral, a week; untreated diabetic controls one half of normal
Excerpt: Potentiation of insulin action by the compounds of the present invention is corroborated by restoration of hepatic lipogenesis in streptozotocin-diabetic mice. Streptozotocin diabetic mice greatly deteriolate hepatic lipogenesis due to insulin deficiency.

[11] = test system: Hereditary obese diabetic mice C 57BL/Ksj (db^+ /db^+); experiment: hereditary obese diabetic mice, diet with 0.05% compound, intake and urine (Example 24); format: in vivo, mouse
Experimental: Hereditary obese diabetic mice C 57BL/Ksj (db^+ /db^+), 12 weeks old, were fed commercial pellet diet (CE-2 from Nippon Crea Co., Ltd.) for a week and they were treated with CE-2 pellet containing 0.05% of 4-O-nicotinoylascochlorin for a week. The daily amounts of the diet intake, drinking water, urine volume and urine glucose excreted were measured before and during the treatment.

[12] = serum lipid and glucose in normal mice fed the compounds (Example 25); format: in vivo, ddY male mice
Experimental: Five-week-old ddY male mice were given for one week a diet (CE-2 from Nippon Crea Co., Ltd.) containing 0.05% of the compounds of the present invention indicated in Table 7. On the 7th day, the mice were sacrificed and the levels of lipid and glucose in their serum were measured.

[13] = test system: streptozotocin diabetic ddY mice; experiment: streptozotocin-diabetic mice, plasma glucose and lipid (Example 26); format: in vivo, ddY male mice
Experimental: Five-week-old ddY male mice […] were injected intraperitoneally 150 mg/kg of streptozotocin, and after 24 hours onward, they were given for one week a diet (CE-2 from Nippon Crea Co., Ltd.) containing 0.05% of 4-O-nicotinoyl ascochlorin. A control group was given only CE-2. On the 7th day, the animals were sacrificed and the levels of glucose and lipid in their plasma were measured.

[14] = test system: Hereditary obese diabetic mice C57BL/Ksj (db^+ /db^+); experiment: hereditary obese diabetic mice, plasma glucose and lipid (Example 27); format: in vivo, mouse
Experimental: Hereditary obese diabetic mice C57BL/Ksj (db^+ /db^+) were given for one week a diet (CE-2 from Nippon Crea Co., Ltd.) containing 0.05% of 4-O-nicotinoyl ascochlorin. A control group of the same age was given only CE-2. One week later, the animals were sacrificed and the levels of plasma glucose and lipid were measured.

[15] = vs one week prior to administration

COc1c(Cl)c(C)c(C=O)c(O)c1C/C=C(C)/C=C/C1(C)C(C)CCC(=O)C1C (stereo not shown)
water solubility [1]: low in water solubility
level in blood [2]: not easily increased even if it is administered systemically or orally

CC(/C=C/[C@@]1(C)[C@H](C)CCC(=O)[C@@H]1C)=C\Cc1c(O)c(Cl)c(C)c(C=O)c1O [Ascochlorin]
anti-viral and anti-tumor effects [3]: high anti-viral and anti-tumor effects
toxicity to the circulatory system [4]: highly toxic to the circulatory system of mammals

CCOC(=O)COc1c(Cl)c(C)c(C=O)c(O)c1C/C=C(C)/C=C/C1(C)C(C)CCC(=O)C1C (stereo not shown) [Example 1, 4-O-ethoxycarbonylmethylated ascochlorin]
total cholesterol in plasma [5]: 105.7 ± 3.0 mg/dL
plasma glucose [5]: 208.3 ± 13.1 mg/dL
serum immunoreactive insulin ([6]; 0.1% in diet, one week, n=10, control 42.67 ± 4.61): 26.60 ± 2.78 μU/ml
serum free fatty acid ([6]; 0.1% in diet, one week, n=10, control 44.29 ± 2.05): 30.44 ± 1.22 mg/dL
serum glucose ([6]; 0.1% in diet, one week, n=10, control 337.7 ± 23.0): 250.6 ± 26.2 mg/dL
body weight after feeding ([6]; 0.1% in diet, one week, before feeding 25.5 ± 0.4, control after feeding 28.0 ± 0.5, ns): 27.0 ± 0.6 g/mouse
serum free fatty acid, change ([6]; vs control): -31.3%
serum glucose, change ([6]; vs control): -25.8%
serum immunoreactive insulin, change ([6]; vs control): -37.7%
Days survived (Ehrlich ascites tumor): 19.3 ± 5.77 days
T/0 (%) (Ehrlich ascites tumor): 125%

CC(/C=C/C1(C)C(C)CCC(=O)C1C)=C\Cc1c(O)c(C=O)c(C)c(Cl)c1OCC(=O)O (stereo not shown) [Example 4, 4-O-carboxymethyl ascochlorin]
total cholesterol in plasma [5]: 107.9 ± 4.5 mg/dL
plasma glucose [5]: 217.6 ± 12.2 mg/dL
urine volume ([7]; 0.1% in diet, one week administration, prior 5.95 ± 0.20, n=10): 2.07 ± 0.23 ml/mouse/day
diet intake ([7]; 0.1% in diet, one week administration, prior 6.35 ± 0.13, n=10): 6.37 ± 0.28 g/mouse/day
drinking water ([7]; 0.1% in diet, one week administration, prior 14.7 ± 0.3, n=10): 10.4 ± 0.3 ml/mouse/day
urine glucose concentration ([7]; 0.1% in diet, one week administration, prior 97.4 ± 3.4, n=10): 52.9 ± 5.52 mg/mL
urine glucose ([7]; 0.1% in diet, one week administration, prior 579.5 ± 21.1, n=10): 106.8 ± 19.5 mg/mouse/day
drinking water, change [7, 15]: -29.3%
urine glucose concentration, change [7, 15]: -45.7%
urine glucose, change [7, 15]: -81.5%
urine volume, change [7, 15]: -65.2%
Days survived (Ehrlich ascites tumor): > 25.3 ± 4.65 days
T/0 (%) (Ehrlich ascites tumor): 163%
Survived 50 days or more (L-1210 leukemia; control 0, P < 0.01): 7
Died (L-1210 leukemia; control 20 died): 13
2-deoxyglucose uptake, and conversion of glucose to carbon dioxide and lipids in adipocytes [8]: greatly increased
^125 I-insulin binding to adipocytes ([8]; vs normal and diabetic control): increased ^125 I-insulin binding to adipocytes above normal and diabetic control levels
2-deoxyglucose uptake, and conversion of glucose to carbon dioxide and lipid [9]: increased
increment in ^125 I-insulin binding to adipocytes ([9]; above age-matched untreated diabetic controls): 1.5-3.0 fold
incorporation of acetate into hepatic total fatty acid and triglyceride [10]: restored to normal control levels

CCOC(=O)C(C)Oc1c(Cl)c(C)c(C=O)c(O)c1C/C=C(C)/C=C/C1(C)C(C)CCC(=O)C1C (stereo not shown) [Example 5, 4-O-(1-ethoxycarbonylethyl) ester of ascochlorin]
total cholesterol in plasma [5]: 109.7 ± 5.0 mg/dL
plasma glucose [5]: 205.7 ± 8.2 mg/dL
Days survived (Ehrlich ascites tumor): > 19.1 ± 1.97 days
T/0 (%) (Ehrlich ascites tumor): 123%

CC(/C=C/C1(C)C(C)CCC(=O)C1C)=C\Cc1c(O)c(C=O)c(C)c(Cl)c1OC(C)C(=O)O (stereo not shown) [Example 9]
total cholesterol in plasma [5]: 106.7 ± 5.5 mg/dL
plasma glucose [5]: 210.0 ± 10.7 mg/dL
Days survived (Ehrlich ascites tumor): > 28.8 ± 3.54 days
T/0 (%) (Ehrlich ascites tumor): 186%

CC(/C=C/C1(C)C(C)CCC(=O)C1C)=C\Cc1c(O)c(C=O)c(C)c(Cl)c1OCCCC(=O)O (stereo not shown) [Example 10]
total cholesterol in plasma [5]: 115.7 ± 5.0 mg/dL
plasma glucose [5]: 220.1 ± 6.8 mg/dL
Days survived (Ehrlich ascites tumor): 19.3 ± 10.12 days
T/0 (%) (Ehrlich ascites tumor): 125%

CC(/C=C/C1(C)C(C)CCC(=O)C1C)=C\Cc1c(O)c(C=O)c(C)c(Cl)c1OC(=O)c1cccnc1 (stereo not shown) [Example 11, 4-O-nicotinoyl ascochlorin]
polydipsia, polyuria and urine glucose excretion (in words) ([11]; 0.05% in diet, one week): improved polydipsis and polyurea and inhibited excretion of urine gluclose
urine volume ([11]; 0.05% in diet, one week, n=5, control period 8.60 ± 0.35): 5.20 ± 0.36 ml/mouse/day
drinking water ([11]; 0.05% in diet, one week, n=5, control period 14.55 ± 0.33): 11.16 ± 0.52 ml/mouse/day
urine glucose concentration ([11]; 0.05% in diet, one week, n=5, control period 130.6 ± 5.7): 106.3 ± 2.9 mg/mL
urine glucose ([11]; 0.05% in diet, one week, n=5, control period 1129 ± 96): 554 ± 43 mg/mouse/day
diet intake ([11]; 0.05% in diet, treatment period one week, n=5, control period 4.85 ± 0.06, NS): 4.26 ± 0.39 g/mouse/day
drinking water, change ([11]; vs control period): -23.30%
urine glucose concentration, change ([11]; vs control period): -18.6%
urine glucose, change ([11]; vs control period): -50.9%
urine volume, change ([11]; vs control period): -39.5%
lipid level in serum (in words) ([12]; 0.05% in diet, one week): could also reduce the lipid level in serum
free fatty acid in serum ([12]; 0.05% in diet, one week, n=8, control 25.3 ± 1.62): 21.2 ± 0.62 mg/dL
neutral fat in serum ([12]; 0.05% in diet, one week, n=8, control 134.7 ± 8.6): 102.0 ± 10.5 mg/dL
total cholesterol in serum ([12]; 0.05% in diet, one week, n=8, control 135.9 ± 4.8): 106.7 ± 5.5 mg/dL
serum glucose ([12]; 0.05% in diet, one week, n=8, control 293.0 ± 13.3): 228.0 ± 16.8 mg/dL
free fatty acid in serum, change ([12]; vs control): -16.3%
neutral fat in serum, change ([12]; vs control): -24.3%
serum glucose, change ([12]; vs control): -22.2%
total cholesterol in serum, change ([12]; vs control): -21.5%
blood glucose and plasma triglyceride (in words) ([13]; 0.05% in diet, one week): could inhibit significantly the increase in the levels of blood glucose and triglyceride in plasma
free aliphatic acid in plasma ([13]; 0.05% in diet, one week, control 22.4 ± 1.4): 20.5 ± 1.2 mg/dL
plasma glucose ([13]; 0.05% in diet, one week, control 453.6 ± 38.0): 351.3 ± 23.0 mg/dL
free aliphatic acid in plasma, change ([13]; vs control): -8%
plasma glucose, change ([13]; vs control): -23%
plasma lipid and glucose levels (in words) ([14]; 0.05% in diet, one week): could reduce significantly the high plasma lipid and glucose levels
plasma free fatty acid ([14]; 0.05% in diet, one week, n=7, control 27.7 ± 1.8): 26.1 ± 1.4 mg/dL
plasma triglyceride ([14]; 0.05% in diet, one week, n=7, control 170.7 ± 16.3): 115.5 ± 14.9 mg/dL
immunoreactive insulin in plasma ([14]; 0.05% in diet, one week, n=7, control 236.6 ± 91.0): 257.3 ± 91.3 μU/ml
plasma glucose ([14]; 0.05% in diet, one week, n=7, control 453.6 ± 38.0): 351.3 ± 23.0 mg/dL
plasma glucose, change ([14]; vs control): -23%
plasma triglyceride, change ([14]; vs control): -32.3%
incorporation of acetate into hepatic total fatty acid and triglyceride [10]: restored to normal control levels
